The record followed here is patent US20130324412A1, “N-ALKOXYAMIDES OF 6-(SUBSTITUTED PHENYL)-4-AMINOPICOLINATES AND 2-(SUBSTITUTED PHENYL)-6-AMINO-4-PYRIMIDINECARBOXYLATES AND THEIR USE AS SELECTIVE HERBICIDES FOR CROPS” (DOW AGROSCIENCES LLC, priority 2009, published 2013).

What all share (type): in vivo
One test deals with corn (Zea mays). Nature of the test: General postemergence herbicidal activity, corn. The conditions noted are these: post-emergence, 336 h, postemergence, after 14 d, 0 = no injury, 100 = complete kill, read-out: ZEAMX % Visual Injury; for plant injury at 70 g/ha: 70 g ai/ha; for plant injury at 35 g/ha: 35 g ai/ha; for plant injury at 280 g/ha: 280 g ai/ha; for plant injury at 140 g/ha: 140 g ai/ha. The procedure: (§1) Seeds or nutlets of the desired test plant species were planted in Sun Gro MetroMix® 360 planting mixture, which typically has a pH of 6.0 to 6.8 and an organic matter content of about 30 percent, in plastic pots with a surface area of 64 square centimeters (cm^2). When required to ensure good germination and healthy plants, a fungicide treatment and/or other chemical or physical treatment was applied. The plants were grown for 7-21 days (d) in a greenhouse with an approximate 15-hour (h) photoperiod which was maintained at about 23-29° C. during the day and 22-28° C. during the night. Nutrients and water were added on a regular basis and supplemental lighting was provided with overhead metal halide 1000-Watt lamps as necessary. The plants were employed for testing when they reached the first or second true leaf stage.
(§2) A weighed amount, determined by the highest rate to be tested, of each test compound was dissolved in 4 mL of a 97:3 volume per volume (v/v) mixture of acetone and dimethyl sulfoxide (DMSO) to obtain concentrated stock solutions. […] The concentrated stock solutions obtained were diluted with 20 mL of an aqueous mixture containing acetone, water, isopropyl alcohol, DMSO, Atplus 411F crop oil concentrate, and Triton X-155 surfactant in a 48.5:39:10:1.5:1.0:0.02 v/v ratio to obtain spray solutions containing the highest application rates. Additional application rates were obtained by serial dilution of 12 mL of the high rate solution into a solution containing 2 mL of 97:3 v/v mixture of acetone and DMSO and 10 mL of an aqueous mixture containing acetone, water, isopropyl alcohol, DMSO, Atplus 411F crop oil concentrate, and Triton X-155 surfactant in a 48.5:39:10:1.5:1.0:0.02 v/v ratio to obtain ½×, ¼×, ⅛× and 1/16× rates of the high rate. Compound requirements are based upon a 12 mL application volume at a rate of 187 liters per hectare (L/ha). Formulated compounds were applied to the plant material with an overhead Mandel track sprayer equipped with 8002E nozzles calibrated to deliver 187 L/ha over an application area of 0.503 square meters (m^2) at a spray height of 18 inches (43 cm) above the average plant canopy height. Control plants were sprayed in the same manner with the solvent blank.
(§3) The treated plants and control plants were placed in a greenhouse as described above and watered by sub-irrigation to prevent wash-off of the test compounds. After 14 d, the condition of the test plants as compared with that of the untreated plants was determined visually and scored on a scale of 0 to 100 percent where 0 corresponds to no injury and 100 corresponds to complete kill.

Test [1] relates to velvetleaf (Abutilon theophrasti). The test is described as follows: General postemergence herbicidal activity, velvetleaf. Particulars: post-emergence, 336 h, postemergence, after 14 d, 0 = no injury, 100 = complete kill, read-out: ABUTH % Visual Injury; for pest or weed control at 70 g/ha: 70 g ai/ha; for pest or weed control at 35 g/ha: 35 g ai/ha; for pest or weed control at 280 g/ha: 280 g ai/ha; for pest or weed control at 140 g/ha: 140 g ai/ha. The protocol:
as §1, §2, §3

Test [2] has as its system lambsquarters (Chenopodium album). Nature of the test: General postemergence herbicidal activity, lambsquarters. Particulars: post-emergence, 336 h, postemergence, after 14 d, 0 = no injury, 100 = complete kill, read-out: CHEAL % Visual Injury; for pest or weed control at 70 g/ha: 70 g ai/ha; for pest or weed control at 35 g/ha: 35 g ai/ha; for pest or weed control at 280 g/ha: 280 g ai/ha; for pest or weed control at 140 g/ha: 140 g ai/ha. The procedure: as §1, §2, §3

Test [3] deals with wild buckwheat (Polygonum convululus). The test is described as follows: General postemergence herbicidal activity, wild buckwheat. Particulars: post-emergence, 336 h, postemergence, after 14 d, 0 = no injury, 100 = complete kill, read-out: POLCO % Visual Injury; for pest or weed control at 70 g/ha: 70 g ai/ha; for pest or weed control at 35 g/ha: 35 g ai/ha; for pest or weed control at 280 g/ha: 280 g ai/ha; for pest or weed control at 140 g/ha: 140 g ai/ha. The procedure: as §1, §2, §3

For the compound `COc1c(Cl)ccc(-c2cc(N)c(Cl)c(C(=O)NOCc3ccc(C)cc3)n2)c1F` [Compound 14, 4-Amino-3-chloro-6-(4-chloro-2-fluoro-3-methoxyphenyl)-N-(4-methyl-benzyloxy)picolinamide], in the test on corn (Zea mays), the plant injury at 70 g/ha stood at 15%. Also, the pest or weed control at 70 g/ha in test [1], in test [2] and in test [3] was 100% in each case.
`COc1c(Cl)ccc(-c2cc(N)c(Cl)c(C(=O)NOCc3ccccc3)n2)c1F` [Compound 5, 4-Amino-N-(benzyloxy)-3-chloro-6-(4-chloro-2-fluoro-3-methoxyphenyl)picolinamide]: the plant injury at 35 g/ha in the test on corn (Zea mays) is 0%. For the same compound, the pest or weed control at 35 g/ha in test [1], in test [2] and in test [3] was 100% each time.
Consider `COCCONC(=O)c1nc(-c2ccc(Cl)c(OC)c2F)cc(N)c1Cl` [Compound 49, 4-Amino-3-chloro-6-(4-chloro-2-fluoro-3-methoxyphenyl)-N-(2-methoxy-ethoxy)picolinamide], for which, in the test on corn (Zea mays), the plant injury at 280 g/ha was found to be 0%. For the same compound, the pest or weed control at 280 g/ha in test [1], in test [2] and in test [3] was 100% in each case.
As to `COc1c(Cl)ccc(-c2cc(N)c(Cl)c(C(=O)NOCc3ccc(F)cc3)n2)c1F` [Compound 22, 4-Amino-3-chloro-6-(4-chloro-2-fluoro-3-methoxyphenyl)-N-(4-fluoro-benzyloxy)picolinamide], in the test with corn (Zea mays), the plant injury at 35 g/ha turned out to be 10%. For the same compound, the pest or weed control at 35 g/ha in test [1], in test [2] and in test [3] was 100% each time.
In the case of `C=CCONC(=O)c1nc(-c2ccc(Cl)c(OC)c2F)nc(N)c1OC` [Compound 35, N-(2-Propenyloxy)-6-amino-2-(4-chloro-2-fluoro-3-methoxyphenyl)-5-methoxypyrimidine-4-carboxamide], the plant injury at 140 g/ha in the test with corn (Zea mays) stood at 20%. Moreover, the pest or weed control at 140 g/ha in test [1] was determined as 100%; in test [2], 100%; in test [3] it was 90%.
In the case of `COc1c(Cl)ccc(-c2cc(N)c(Cl)c(C(=O)N(C)OC)n2)c1F` [Compound 6, 4-Amino-3-chloro-6-(4-chloro-2-fluoro-3-methoxyphenyl)-N-methoxy-N-methyl-picolinamide], the plant injury at 70 g/ha with corn (Zea mays) stood at 0%. The pest or weed control at 70 g/ha in test [1], in test [2] and in test [3] was 100% each time.
For the compound `COc1c(Cl)ccc(-c2cc(N)c(Cl)c(C(=O)NOC(C)(C)C)n2)c1F` [Compound 21, 4-Amino-N-tert-butoxy-3-chloro-6-(4-chloro-2-fluoro-3-methoxyphenyl)picolinamide], the plant injury at 140 g/ha in the test on corn (Zea mays) turned out to be 0%. The figures for the pest or weed control at 140 g/ha in test [1], in test [2] and in test [3] were 100%, 95% and 95%, respectively.
Consider `COc1c(Cl)ccc(-c2cc(N)c(Cl)c(C(=O)N(C)O)n2)c1F` [Compound 24, 4-Amino-3-chloro-6-(4-chloro-2-fluoro-3-methoxyphenyl)-N-hydroxy-N-methylpicolinamide], for which the plant injury at 70 g/ha with corn (Zea mays) was 50%. Besides, the pest or weed control at 70 g/ha is 90% in test [1], 95% in test [2] and 80% in test [3].
`Nc1cc(Cl)nc(C(=O)NOCc2ccc(F)cc2)c1Cl` [Compound 34, 4-Amino-3,6-dichloro-N-(4-fluorobenzyloxy)picolinamide]: in the test on corn (Zea mays), the plant injury at 280 g/ha stood at 20%. The pest or weed control at 280 g/ha turned out to be 65% in test [1], 100% in test [2] and 100% in test [3].
In the case of `C=CC(C)ONC(=O)c1nc(-c2ccc(Cl)c(OC)c2F)cc(N)c1Cl` (stereo not drawn) [Compound 33, 4-Amino-N-(but-3-en-2-yloxy)-3-chloro-6-(4-chloro-2-fluoro-3-methoxy-phenyl)picolinamide], the plant injury at 70 g/ha in the test with corn (Zea mays) was 10%. Moreover, the pest or weed control at 70 g/ha in test [1], in test [2] and in test [3] was 100% each time.
On to `CCCCONC(=O)c1nc(-c2ccc(Cl)c(OC)c2F)cc(N)c1Cl` [Compound 46, 4-Amino-N-butoxy-3-chloro-6-(4-chloro-2-fluoro-3-methoxyphenyl)picolinamide], for which the plant injury at 70 g/ha in the test on corn (Zea mays) worked out at 25%. For the same compound, the pest or weed control at 70 g/ha in test [1], in test [2] and in test [3] was 100% in each case.
On to `C=CCONC(=O)c1nc(-c2ccc(Cl)c(OC)c2F)nc(N)c1C=C` [Compound 10, N-(2-Propenyloxy)-6-amino-2-(4-chloro-2-fluoro-3-methoxyphenyl)-5-vinylpyrimidine-4-carboxamide], for which the plant injury at 140 g/ha in the test on corn (Zea mays) turned out to be 15%. Also, the pest or weed control at 140 g/ha amounted to 100% in test [1], 85% in test [2] and 15% in test [3].
Regarding `COc1c(Cl)ccc(-c2cc(N)c(Cl)c(C(=O)NOC3CCCCO3)n2)c1F` (stereo not drawn) [Compound 12, 4-amino-3-chloro-6-(4-chloro-2-fluoro-3-methoxyphenyl)-N-(tetrahydro-2H-pyran-2-yloxy)picolinamide], the plant injury at 70 g/ha in the test with corn (Zea mays) was determined as 0%. The pest or weed control at 70 g/ha in test [1], in test [2] and in test [3] was 100% each time.
For the compound `CCCONC(=O)c1nc(-c2ccc(Cl)c(OC)c2F)cc(N)c1Cl` [Compound 7, 4-Amino-3-chloro-6-(4-chloro-2-fluoro-3-methoxyphenyl)-N-propoxypicolinamide], the plant injury at 35 g/ha in the test on corn (Zea mays) is 25%. The pest or weed control at 35 g/ha in test [1], in test [2] and in test [3] was 100% each time.
In the case of `C#CCONC(=O)c1nc(-c2ccc(Cl)c(OC)c2F)cc(N)c1Cl` [Compound 13, 4-Amino-3-chloro-6-(4-chloro-2-fluoro-3-methoxyphenyl)-N-(2-propynyloxy)picolinamide], the plant injury at 70 g/ha in the test with corn (Zea mays) stood at 0%. In addition, the pest or weed control at 70 g/ha in test [1], in test [2] and in test [3] was 100% each time.
